Laboratory results published in patent publication US5098931A, “7-substituted HMG-CoA reductase inhibitors” (Merck & Co., Inc., priority 1990, dated 1992).

molecular target: T1, HMG-CoA reductase (Rattus norvegicus, UniProt P51639); assay: intrinsic HMG-CoA reductase inhibition, published in vitro protocol (J. Med. Chem., 28, p. 347-358 (1985)); assay type: biochemical; conditions: IC50 of test compound compared with that of compactin (mevastatin) determined simultaneously; compactin assigned a value of 100
T1 sequence (P51639 1-887): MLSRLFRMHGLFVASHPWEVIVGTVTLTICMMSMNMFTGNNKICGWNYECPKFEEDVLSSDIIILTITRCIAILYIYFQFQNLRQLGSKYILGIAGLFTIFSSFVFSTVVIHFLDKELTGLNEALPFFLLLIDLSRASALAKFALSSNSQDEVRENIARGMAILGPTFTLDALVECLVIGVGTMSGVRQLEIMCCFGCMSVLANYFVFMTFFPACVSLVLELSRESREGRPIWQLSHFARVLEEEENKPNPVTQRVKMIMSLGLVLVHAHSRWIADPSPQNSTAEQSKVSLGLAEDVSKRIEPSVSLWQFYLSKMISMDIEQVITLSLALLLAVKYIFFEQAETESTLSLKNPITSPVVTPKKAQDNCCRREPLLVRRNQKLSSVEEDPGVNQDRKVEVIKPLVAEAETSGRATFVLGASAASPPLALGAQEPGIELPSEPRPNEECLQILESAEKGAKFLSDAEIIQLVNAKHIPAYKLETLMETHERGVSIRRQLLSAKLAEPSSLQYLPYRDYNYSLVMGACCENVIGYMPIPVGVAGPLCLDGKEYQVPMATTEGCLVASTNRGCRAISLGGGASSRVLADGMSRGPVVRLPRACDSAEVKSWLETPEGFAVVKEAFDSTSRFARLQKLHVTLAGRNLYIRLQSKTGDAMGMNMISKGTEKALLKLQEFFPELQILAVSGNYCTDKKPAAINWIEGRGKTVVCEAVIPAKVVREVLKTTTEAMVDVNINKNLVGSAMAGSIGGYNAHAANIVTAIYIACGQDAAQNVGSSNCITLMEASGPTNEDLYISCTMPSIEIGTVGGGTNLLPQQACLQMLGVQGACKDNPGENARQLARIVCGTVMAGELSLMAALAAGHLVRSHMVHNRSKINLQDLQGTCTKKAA
Procedure: The intrinsic HMG-CoA reductase inhibition activity of the claimed compounds is measured in the in vitro protocol published in J. Med. Chem., 28, p. 347-358 (1985). […] Representative of the intrinsic HMG-CoA reductase inhibitory activities of the claimed compounds are the following relative potencies for compounds of formula (I).

Structure (SMILES) | Relative Potency (Compactin = 100)
CCC(C)(C)C(=O)O[C@H]1[C@H](CO)[C@@H](C)C=C2C=C[C@H](C)[C@H](CC[C@@H]3C[C@@H](O)CC(=O)O3)[C@H]21 [6(R)-[2-[8(R)-(2,2-dimethylbutyryloxy)-2(S)-methyl-6(S)-methyl-7(S)-hydroxymethyl-1,2,6,7,8,8a(R)-hexahydronaphthyl-1(S)]ethyl]-4(R)-hydroxy-3,4,5,6-tetrahydro-2H-pyran-2-one] | 262
CCC(C)(C)C(=O)O[C@H]1[C@@H](O)[C@@H](C)C=C2C=C[C@H](C)[C@H](CC[C@@H]3C[C@@H](O)CC(=O)O3)[C@H]21 [6(R)-[2-[8(R)-(2,2-dimethylbutyryloxy)-2(S)-methyl-6(S)-methyl-7(S)-hydroxy-1,2,6,7,8,8a(R)-hexahydronaphthyl-1(S)]ethyl]-4(R)-hydroxy-3,4,5,6-tetrahydro-2H-pyran-2-one] | 214
CCC(C)(C)C(=O)O[C@H]1[C@H](C)[C@@H](C)C=C2C=C[C@H](C)[C@H](CC[C@@H]3C[C@@H](O)CC(=O)O3)[C@H]21 [6(R)-[2-[8(R)-(2,2-dimethylbutyryloxy)-2(S)-methyl-6(S)-methyl-7(R)-methyl-1,2,6,7,8,8a(R)-hexahydronaphthyl-1(S)]ethyl]-4(R)-hydroxy-3,4,5,6-tetrahydro-2H-pyran-2-one] | 174

The next lines start with the values.

Relative Potency (Compactin = 100) | Structure (SMILES)
137 | CCC(C)(C)C(=O)O[C@@H]1[C@H]2C(=C[C@H](C)[C@H]1[C@H](O)c1ccccc1)C=C[C@H](C)[C@@H]2CC[C@@H]1C[C@@H](O)CC(=O)O1 [6R-[2-[8(R)-(2,2-dimethylbutyryloxy)-2(S)-methyl-6(S)-methyl-7(S)-(1(S)-hydroxybenzyl)-1,2,6,7,8,8a(R)-hexahydronaphthyl-1(S)]-ethyl]-4(R)-hydroxy-3,4,5,6-tetrahydro-2H-pyran-2-one]
350 | CCC(C)(C)C(=O)O[C@@H]1[C@H]2C(=C[C@H](C)[C@H]1[C@H](C)O)C=C[C@H](C)[C@@H]2CC[C@@H]1C[C@@H](O)CC(=O)O1 [6R-[2-[8(R)-(2,2-dimethylbutyryloxy)-2(S)-methyl-6(S)-methyl-7(S)-(1(S)-hydroxyethyl)-1,2,6,7,8,8a(R)-hexahydronaphthyl-1(S)]ethyl]-4(R)-hydroxy-3,4,5,6-tetrahydro-2H-pyran-2-one]
124 | CCC(C)(C)C(=O)O[C@@H]1[C@H]2C(=C[C@H](C)[C@H]1[C@@H](C)O)C=C[C@H](C)[C@@H]2CC[C@@H]1C[C@@H](O)CC(=O)O1 [6R-[2-[8(R)-(2,2-dimethylbutyryloxy)-2(S)-methyl-6(S)-methyl-7(S)-(1(R)-hydroxyethyl)-1,2,6,7,8,8a(R)-hexahydronaphthyl-1(S)]ethyl]-4(R)-hydroxy-3,4,5,6-tetrahydro-2H-pyran-2-one]
